Entries after “also recorded” stand apart in the source; their conditions may differ.
Assay: Release of rapamycin from spray-coated microporous stents (UV spectroscopy at 280 nm)
Format: physicochemical
Details: for effect of second drug on rapamycin release from the stent platform: 0.5% and 1.0% 17β estradiol valerate added to 1% rapamycin solution in ethanol
Procedure: Microporous stents are spray-coated by means of a unique stent-coating machine (Wessely et al, supra). Attachment of a drug-reservoir is required to supply one or multiple drugs of choice. Besides sirolimus (rapamycin) we included a second drug at different concentrations to examine whether release kinetics of the primary compound (e.g. sirolimus) could be altered. Released rapamycin from the stent platform were measured at distinctive time points as previously described (Wessely, supra) by means of UV spectroscopy at a wave length of 280 nm.
The experiment was carried out as Example 1 with the exception that 17β estradiol was used as second drug.
The experiment was carried out as Example 1 with the exception that rosiglitazone was used as second drug.
The experiment was carried out as Example 1 with the exception that probucol was used as second drug.

Compound: COc1ccccc1OCCNCC(O)COc1cccc2[nH]c3ccccc3c12 (stereo not shown) [carvedilol]
- effect of second drug on stent-based rapamycin release (multiplex coating with rapamycin (1%) and carvedilol (0.5%) in ethanol vs single coated rapamycin (1%)): clear retardation

Compound: CCCCC(=O)O[C@H]1CC[C@H]2[C@@H]3CCc4cc(O)ccc4[C@H]3CC[C@]12C [17β estradiol valerate]
- effect of second drug on rapamycin release from the stent platform (0.1%): substantially modulate rapamycin release
- effect of second drug on rapamycin release from the stent platform (0.1%, listed as estradiolvalerat): retardation

Compound: CC(C)(Sc1cc(C(C)(C)C)c(O)c(C(C)(C)C)c1)Sc1cc(C(C)(C)C)c(O)c(C(C)(C)C)c1 [probucol, 4,4′-(isopropylidenedithio) bis(2,6-di-tert-butyl-phenol)]
- effect of second drug on release of rapamycin from the stent (0.1%, 0.5% and 1.0% probucol added to 4% rapamycin solution in ethanol, polymer-free): protracts the release of rapamycin; also recorded: modifiable
